Data on 2 molecules can be found in paper PMC11162475, “Rule-based omics mining reveals antimicrobial macrocyclic peptides against drug-resistant clinical isolates” (Nature Communications, 2024).

One data set concerns LREfa 20-1. The data set can be described thus: microbe, parasite or virus in culture. The class given is cell-based, Enterococcus faecalis. The settings on record: Enterococcus faecalis, 201; LREfa 20-1 (linezolid-resistant E. faecalis); determined by Sichuan Primed Shines Bio-tech, similar protocol; read-out: MIC. On the procedure:
(§1) For MIC determination, Staphylococcus aureus ATCC25923, Bacillus subtilis 168, Micrococcus luteus DSM1790, Enterococcus faecalis OG1RF, Enterococcus faecium MCC2763, Escherichia coli DH5α and Pseudomonas aeruginosa PAO1 were used as indicator strains. Nisin and vancomycin were used as positive controls. A dilution series of massatide A, massatide B, vancomycin (16, 8, 4, 2, 1, 0.5, 0.25, 0.125, 0.0625, 0.0313 μg/mL) and sistertide A1, kebanetide A1, kebanetide A2, nisin (64, 32, 16, 8, 4, 2, 1, 0.5, 0.25, 0.125 μg/mL) were prepared in 96-well plate from 1–10th column. The indicator strains were added to the compound-containing well. The indicator strain culture with no antibiotics was prepared in the 11th column. The 12th column was filled with 200 μL empty MHB medium. The 96-well plate was incubated at 37 °C for 20 h (30 °C for M. luteus and B. subtilis). The OD600 was detected on MULTISKAN Sky (Thermo Scientific) and MIC values were determined. The MIC values of clinical isolates were determined by Sichuan Primed Shines Bio-tech Co., Ltd. (China) following similar protocol. Levofloxacin was used as a positive control.

In another data set the test system is VREfa ATCC51575. Kind of data set: microbe, parasite or virus in culture. The class given is cell-based, Enterococcus faecalis. To be noted: Enterococcus faecalis; VREfa ATCC51575 (vancomycin-resistant E. faecalis); determined by Sichuan Primed Shines Bio-tech, similar protocol; read-out: MIC. The method, then: as §1
For the next data set, the system named is MRSA ATCC43300. The data set can be described thus: microbe, parasite or virus in culture. The settings on record: Staphylococcus aureus; MRSA ATCC43300; determined by Sichuan Primed Shines Bio-tech, similar protocol; read-out: MIC. In kind it is cell-based, Staphylococcus aureus. The method, then: as §1
Another data set concerns VMSA ATCC700788. Kind of data set: microbe, parasite or virus in culture. The class given is cell-based, Staphylococcus aureus. To be noted: Staphylococcus aureus; VMSA ATCC700788 (vancomycin-intermediate S. aureus); determined by Sichuan Primed Shines Bio-tech, similar protocol; read-out: MIC. On the procedure: as §1
The next data set has as its system VMSA ATCC700699. Kind of data set: microbe, parasite or virus in culture. The class given is cell-based, Staphylococcus aureus. To be noted: Staphylococcus aureus; VMSA ATCC700699 (vancomycin-intermediate S. aureus); determined by Sichuan Primed Shines Bio-tech, similar protocol; read-out: MIC. On the procedure:
as §1

A further data set relates to MRSA 15-1. The data set can be described thus: microbe, parasite or virus in culture. The class given is cell-based, Staphylococcus aureus. The settings on record: Staphylococcus aureus; MRSA 15-1 (methicillin-resistant S. aureus); determined by Sichuan Primed Shines Bio-tech, similar protocol; read-out: MIC. On the procedure:
as §1

The next data set deals with MRSA ATCC33591. Kind of data set: microbe, parasite or virus in culture. To be noted: Staphylococcus aureus; MRSA ATCC33591; determined by Sichuan Primed Shines Bio-tech, similar protocol; read-out: MIC. The class given is cell-based, Staphylococcus aureus. The method, then:
as §1

Another data set has as its system LRSA 20-1. Kind of data set: microbe, parasite or virus in culture. In kind it is cell-based, Staphylococcus aureus. The settings on record: Staphylococcus aureus; LRSA 20-1 (linezolid-resistant S. aureus); determined by Sichuan Primed Shines Bio-tech, similar protocol; read-out: MIC. On the procedure: as §1
Data set [1] has as its system Klebsiella pneumoniae ATCC700603. Kind of data set: microbe, parasite or virus in culture. The class given is cell-based. To be noted: Klebsiella pneumoniae ATCC700603; determined by Sichuan Primed Shines Bio-tech, similar protocol; read-out: MIC. The method, then: as §1
Data set [2] has as its system Acinetobacter baumannii 20-2. The data set can be described thus: microbe, parasite or virus in culture. To be noted: 202; Acinetobacter baumannii 20-2; determined by Sichuan Primed Shines Bio-tech, similar protocol; read-out: MIC. The class given is cell-based. On the procedure: as §1
Data set [3] deals with Klebsiella pneumoniae 15-1. Kind of data set: microbe, parasite or virus in culture. The class given is cell-based. The settings on record: 151; Klebsiella pneumoniae 15-1; determined by Sichuan Primed Shines Bio-tech, similar protocol; read-out: MIC. On the procedure: as §1
The subject of data set [4] is Enterococcus faecalis 19-1. Kind of data set: microbe, parasite or virus in culture. The settings on record: 191; Enterococcus faecalis 19-1; determined by Sichuan Primed Shines Bio-tech, similar protocol; read-out: MIC. In kind it is cell-based. The method, then: as §1
In data set [5] the test system is Acinetobacter baumannii 20-1. Kind of data set: microbe, parasite or virus in culture. The class given is cell-based. The settings on record: 201; Acinetobacter baumannii 20-1; determined by Sichuan Primed Shines Bio-tech, similar protocol; read-out: MIC. On the procedure: as §1
The next data set concerns Bacillus subtilis 168. The data set can be described thus: microbe, parasite or virus in culture. In kind it is cell-based. The settings on record: 168, 20 h. On the procedure: as §1
Data set [6] deals with Enterococcus faecalis OG1RF. Kind of data set: microbe, parasite or virus in culture. The class given is cell-based. To be noted: OG1RF, 20 h. On the procedure: as §1
Data set [7] has as its system Staphylococcus aureus ATCC25923. Kind of data set: microbe, parasite or virus in culture. The class given is cell-based. The settings on record: ATCC25923, 20 h. On the procedure:
as §1

Data set [8] relates to Micrococcus luteus DSM1790. The data set can be described thus: microbe, parasite or virus in culture. The class given is cell-based. The settings on record: DSM1790, 20 h. On the procedure:
as §1

In data set [9] the test system is Enterococcus faecium MCC2763. The data set can be described thus: microbe, parasite or virus in culture. In kind it is cell-based. To be noted: MCC2763, 20 h. On the procedure: as §1
In data set [10] the test system is Pseudomonas aeruginosa PAO1. The class given is cell-based. To be noted: PAO1, 20 h. The method, then: as §1
Another data set has as its system Escherichia coli DH5α. In kind it is cell-based. The settings on record: DH5α, 20 h. On the procedure:
as §1

For data set [11], the system named is Staphylococcus aureus ATCC25923. The data set can be described thus: Kirby-Bauer assay, zone of inhibition (agar well). The class given is cell-based. To be noted: S. aureus ATCC25923; 10 μL of 3.2 mg/mL DMSO stock in well of soft LB agar, 37 °C, 20 h. On the procedure:
(§2) The stock solution of massatide A (1) and B (1a) 3.2 mg/mL were prepared in DMSO. 40 μL overnight culture of Micrococcus luteus DSM1790 was added to 20 mL soft Luria-Bertani agar (1% agar), and then poured into a plate. 10 μL tip was used to make two wells on the plate. 10 μL massatide A (1) or B (1a) solution was added in one of the wells, while in the other well, 10 μL DMSO was added as a negative control. The plates were incubated at 30 °C for 20 h to observe the zone of inhibition. Staphylococcus aureus ATCC25923 was also used to observe the inhibition zone using a similar method. The only difference is incubating at 37 °C. Stock solutions of sistertide A1, kebanetide A1 and A2 were 3.2 mg/mL, 1.6 mg/mL and 1.6 mg/mL, respectively. The method to observe the activity of these compounds individually was the same as that of massatide.

For data set [12], the system named is Micrococcus luteus DSM1790. Kind of data set: Kirby-Bauer assay, zone of inhibition (agar well). The class given is cell-based. To be noted: M. luteus DSM1790; 10 μL DMSO stock (3.2 or 1.6 mg/mL) in well of soft LB agar, 30 °C, 20 h. The method, then:
as §2

Data set [13] in a line: Mammalian cytotoxicity, CCK-8 assay. In kind it is cell-based. The settings on record: human. The method, then:
(§3) Bioactivity assay of the crude extract
(§4) Protease stability of massatide A
(§5) Thermal stability of massatide A […]
(§6) and 1% penicillin -streptomycin. […]
(§7) and CO 2-controllable incubator with 5% CO 2. All the cell experiments were performed […]
(§8) Cell viability was determined by the CCK -8 assay. HeLa and Hek -293T cells were […]
(§9) µg/ml. At the end of the fixed incubation period (24 h), cells were washed with PBS to remove excess compound. We added 100 µl fresh medium and 10 µl CCK-8 reagent.
(§10) After 2 h incubation at 37°C, absorbance at 450 nm was recorded using a microplate reader. All experiments were performed in triplicate (n=3 independent experiments).
(§11) Growth kinetics of S. aureus
(§12) Massatide A or B was prepared in a 96-well plate at the concentration of 8×MIC, 4×MIC, 2×MIC, 1×MIC and 0.5×MIC , respectively. The MHB medium with no compound was used as a control. Then, the overnight culture of S. aureus ATCC 25923 cells was added to the medium at 1:1,000. The plate was incubated with shaking in SpectraMax iD3 (MOLECULAR DEVICES) at 30 ℃. OD600 was measured every 30 min for 36 hours. To analyze the lysis, 1mL of S. aureus ATCC 25923 culture (OD600 1.0) was treated with massatide A or vancomycin (10×MIC) for 24h. An untreated sample was used as a negative control.
(§13) Time-dependent killing assay
(§14) An overnight culture of S. aureus ATCC 25923 cells was diluted at 1:10,000 in MHB medium and incubated at 37 ℃, 200 rpm for 2 hours to reach the early exponential.
(§15) Then, massatide A or vancomycin was added to the culture at the concentration of 10×MIC. Bacteria were still cultivated at 37 ℃, 200 rpm. Culture with no antibiotics was used as a negative control. 10 μL aliquots were removed at intervals, centrifuged, and resuspended in 1 ml PBS. Serially diluted (10-fold) suspensions were plated on MHB agar and incubated at 37 ℃ overnight for counting of colony-forming units.
(§16) Experiments were performed in triplicate.
(§17) Sequential culturing of S. aureus ATCC 25923 was performed in the presence of a subinhibitory concentration of massatide A to observe whether the resistance developed. […]

A further data set concerns HeLa cells. The data set can be described thus: Mammalian cytotoxicity, CCK-8 assay. The class given is cell-based. The method, then: as §3, §4, §5, §6, §7, §8, §9, §10, §11, §12, §13, §14, §15, §16, §17
(Formazan colour is commonly taken as a measure of viable cells.)

≈ marks a conversion by molar mass, not a printed value.

As for `C[C@H]1COc2c(N3CCN(C)CC3)c(F)cc3c(=O)c(C(=O)O)cn1c23` [Levofloxacin, reference compound], the MIC with LREfa 20-1 turned out to be 32 µg/mL (≈ 88.6 µM); with VREfa ATCC51575, 0.5 µg/mL (≈ 1.38 µM); with MRSA ATCC43300, 0.25 µg/mL (≈ 0.692 µM); with VMSA ATCC700788, 32 µg/mL (≈ 88.6 µM); in the data set with VMSA ATCC700699, 64 µg/mL (≈ 177 µM); in the data set on MRSA 15-1, 16 µg/mL (≈ 44.3 µM). The MIC amounted to 0.25 µg/mL (≈ 0.692 µM) in the data set on MRSA ATCC33591; 32 µg/mL (≈ 88.6 µM) with LRSA 20-1; 0.5 µg/mL (≈ 1.38 µM) in [1]; 0.06 µg/mL (≈ 0.166 µM) in data set [2]; 0.25 µg/mL (≈ 0.692 µM) in data set [3]; 1 µg/mL (≈ 2.77 µM) in data set [4]. Besides, the MIC in [5] came out at 8 µg/mL (≈ 22.1 µM).

For orientation: IC50 means the concentration at which inhibition is half-maximal. Low readings indicate higher potency, high ones lower potency. Consider `C/C=C1\NC(=O)C(N(C)C)C(C)SC[C@@H](C(=O)N/C(=C\C)C(=O)N[C@H](C(=O)N[C@@H](C)C(=O)N[C@H](C)C(=O)N[C@@H](Cc2ccccc2)C(=O)N[C@@H](C)C(=O)NC2C(=O)NCC(=O)N[C@@H](Cc3ccc(O)cc3)C(=O)N[C@@H](Cc3ccccc3)C(=O)N[C@H](C)C(=O)N/C=C\SC2C)C(C)C)NC(=O)[C@@H]2CCCN2C(=O)[C@H](C(C)C)NC1=O` (stereo partly drawn) [Massatide B (1a), massatide B], for which the MIC with Bacillus subtilis 168 was 4 µg/mL (≈ 2.45 µM); in data set [6], 4 µg/mL (≈ 2.45 µM); in data set [7], 1 µg/mL (≈ 0.612 µM); in [8], 0.25 µg/mL (≈ 0.153 µM); in data set [9] it was 4 µg/mL (≈ 2.45 µM); in [10], more than 64 µg/mL. Moreover, the MIC in the data set on Escherichia coli DH5α is more than 64 µg/mL. The “inhibitory activity (zone of inhibition)” value in [11] and in data set [12] was “strong inhibitory activity” throughout. The molecule also showed a half-maximal inhibitory concentration (IC50) at 24 h in data set [13] of more than 200 µg/mL. For the same molecule, the “cytotoxicity against Hela cells” value with HeLa cells is “did not exhibit any significant cytotoxicity”.
